In patent publication US5362751A, “Tracheobronchodilator using 16-substituted PGEs” (priority 1988, dated 1994):
Read-outs that look alike come from different tables or passages of the source.

Assays:
tracheal smooth muscle = assay: Tracheaectasy: inhibition of histamin-induced contraction of circular slices of guinea pig trachea in Magnus tube; conditions: contraction by 5.4×10^-4 M histamin, cumulative administration; for IC20: read-out: IC20 (concentration exhibiting the inhibition rate of 20%); for IC50: read-out: IC50 (concentration exhibiting the inhibition rate of 50%)
Description: A male guinea pig weighing about 300 g was beaten to death, and immediately drew the blood by cutting its arteriae femoral as pouring water. A trachea was picked out and cut lengthwise at the opposite side of tracheal smooth muscle and cut into circular slices between cartilages. The obtained seven circular slices of the trachea were tied like as a chain with a thread, and hung into Magnus tube.
After the circular slices of trachea were held for 60-90 minutes until it became stable (disappearence of convulsion), they were administered with 5.4×10^-4 M of histamin to be contracted. After the contraction reached to maximum, each test drug was cumulatively administered so as to inhibit the contraction caused by the histamin.

airway resistance = assay: Inhibition of increase of airway resistance due to histamin in anesthetized guinea pig; format: in vivo; conditions: intravenous, histamin 3 μg/kg one minute later
Description: A male guinea pig weighing 300-400 g was intraperitoneally anesthetized with urethane 1.5 g/kg. The test animal was cannulated through the trachea, and then bromopanchlonium was intravenously administered at 0.3 mg/kg to make the test animal inactivate. The animal was respired using a vespirater for a small animal. The airway resistance was recorded on a recorder using a bronchospasin transducer. The administration of the test drug was made through a cannula into the jugular vein. The histamin was administered three times of each 3 μg/kg at 30 minutes intervals, and the increase of the airway resistance was determined. After the determination the test drug was intervenously administered, and then 4th administration of histamin was done after one minute. The increase of airway resistance due to histamin before and after the administration of the test drug was determined, from which inhibition rate of the increase due to the test drug was evaluated.

trachea of humans = assay: Stimuli of trachea by spraying inhalation in humans; format: in vivo, human; conditions: 10 μg/ml solution sprayed at 2 ml/min, ultrasonic inhaler
Description: The strength of stimuli to trachea of humans was evaluated by actual spraying inhalation.
Each test drug was dissolved with a small amount of ethyl alcohol, to which distilled water was added to prepare a solution containing test drug at a concentration of 10 μg/ml. Four panels (K, D, T and O) were sprayed into their throats with the each test solution at a rate of 2 ml/min using an ultrasonic inhaler (NE-U10B available from Omlon K.K.), and the strength of the stimuli was observed.

Compound | IC50 (tracheal smooth muscle; Cavia porcellus) | IC20 (tracheal smooth muscle; Cavia porcellus) | further results
CCCCC(F)C(=O)CC[C@H]1[C@H](O)CC(=O)[C@@H]1CCCCCCC(=O)O (stereo partly shown) [compound 62] |  | 4 µM | 
CCCCC(C)(C)C(=O)CC[C@H]1[C@H](O)CC(=O)[C@@H]1C/C=C\CCCC(=O)OC [compound 30] |  |  | IC20 (tracheal smooth muscle): 0.6 µM; IC50 (tracheal smooth muscle): 2 µM
COCCCCCC(=O)CC[C@H]1[C@H](O)CC(=O)[C@@H]1CC#CCCCC(=O)OC [compound 46] |  | 10 µM | 
CCCCC(C)C(=O)CCC1C(O)CC(=O)C1CC(=O)CCCCC(=O)OC (stereo not shown) [compound 9] |  |  | IC20 (tracheal smooth muscle): 0.1 µM; IC50 (tracheal smooth muscle): 0.4 µM
COC(=O)CCC/C=C\C[C@H]1C(=O)C[C@@H](O)[C@@H]1CCC(=O)CCCC(C)C [compound 40] | 40 µM | 2 µM | 
CCCCCCCCC(=O)CC[C@H]1[C@H](O)CC(=O)[C@@H]1C/C=C\CCCC(=O)OC [compound 53] |  | 10 µM | 
COC(=O)CCC/C=C\C[C@H]1C(=O)C[C@@H](O)[C@@H]1CCC(=O)CCCCC=C(C)C [compound 49] |  | 7 µM | 
COC(=O)CCCCC(=O)CC1C(=O)CC(O)C1CCC(=O)CCCC(C)C (stereo not shown) [compound 13] |  |  | IC20 (tracheal smooth muscle): 1 µM; IC50 (tracheal smooth muscle): 30 µM
CCCCCCC(=O)CC[C@H]1[C@H](O)CC(=O)[C@@H]1CC(=O)CCCCC(=O)OCC [compound 15] |  |  | IC20 (tracheal smooth muscle): 0.5 µM; IC50 (tracheal smooth muscle): 4 µM
CCCCC(C)C(=O)CCC1C(O)CC(=O)C1CC(=O)CCCCC(=O)OCC (stereo not shown) [compound 10] |  |  | IC20 (tracheal smooth muscle): 0.1 µM; IC50 (tracheal smooth muscle): 0.6 µM
CCCCCC(=O)CCC1C(O)CC(=O)C1CC=CCC(C)CC(=O)OCC (stereo not shown) [compound 26] |  |  | IC20 (tracheal smooth muscle): 1 µM; IC50 (tracheal smooth muscle): 7 µM
CCCCC(C)C(=O)CCC1C(O)CC(=O)C1CC=CCCCC(=O)OCC (stereo not shown) [compound 28] |  |  | IC20 (tracheal smooth muscle): 0.7 µM; IC50 (tracheal smooth muscle): 7 µM
COCCCCCC(=O)CC[C@H]1[C@H](O)CC(=O)[C@@H]1C/C=C\CC(C)CC(=O)OC (stereo partly shown) [compound 44] |  | 10 µM | 
CCCCC(C)C(=O)CC[C@H]1[C@H](O)CC(=O)[C@@H]1C/C=C\CC(C)CC(=O)OC (stereo partly shown) [compound 29] |  |  | IC20 (tracheal smooth muscle): 0.6 µM; IC50 (tracheal smooth muscle): 7 µM
CCCCCC(=O)/C=C/[C@H]1[C@H](O)CC(=O)[C@@H]1C/C=C\CCCC(=O)O [compound 54] | 30 µM | 8 µM | 
CCC[C@H](C)CC(=O)CC[C@H]1[C@H](O)CC(=O)[C@@H]1C/C=C\CCCC(=O)OCC [compound 58] | 30 µM | 1 µM | 
CCCCC[C@H](O)/C=C/[C@H]1[C@H](O)CC(=O)[C@@H]1CCCCCCC(=O)O [compound 56] | 0.08 µM | 0.002 µM | 
CCCCC(F)C(=O)CC[C@H]1[C@H](O)CC(=O)[C@@H]1C/C=C\CCCC(=O)OCC (stereo partly shown) [compound 35] | 20 µM | 0.9 µM | 

Compound | IC50 (tracheal smooth muscle; Cavia porcellus) | IC20 (tracheal smooth muscle; Cavia porcellus) | further results
CCCCC(F)(F)C(=O)CC[C@H]1[C@H](O)CC(=O)[C@@H]1C/C=C\CCCC(=O)O [13,14-dihydro-15-keto-16,16-difluoro-PGE2] |  |  | inhibition rate of increase of airway resistance (airway resistance; dose 1 μg/kg): 42%; inhibition rate of increase of airway resistance (airway resistance; dose 3 μg/kg): 100%
CCCCC(C)C(=O)CC[C@H]1[C@H](O)CC(=O)[C@@H]1CC(=O)CCCCC(=O)OC (stereo partly shown) [Test drug 9, 13,14-dihydro-6,15-diketo-16R,S-methyl-PGE1 methyl ester] |  |  | strength of stimuli to trachea, panel D (trachea of humans; panel D): -; strength of stimuli to trachea, panel K (trachea of humans; panel K): -; strength of stimuli to trachea, panel O (trachea of humans; panel O): -; strength of stimuli to trachea, panel T (trachea of humans; panel T): -
CCC[C@H](C)CC(=O)/C=C/[C@H]1[C@H](O)CC(=O)[C@@H]1C/C=C\CCCC(=O)OCC [compound 61] | 2.5 µM | 0.7 µM | 
CCC[C@H](C)CC(=O)CC[C@H]1[C@H](O)CC(=O)[C@@H]1C/C=C\CCCC(=O)OC [compound 39] | 60 µM | 3 µM | 
CCCCC[C@H](O)/C=C/[C@H]1[C@H](O)CC(=O)[C@@H]1C/C=C\CCCC(=O)O [Test drug 57, (z)-7-{(1R,2R,3R)-3-hydroxy-2-[(E)-(3S)-3-hydroxy-1-octenyl]-5-oxo-cyclopentyl}-hept-5-enoic acid, reference compound] |  |  | inhibition rate of increase of airway resistance (airway resistance; dose 3 μg/kg): 92%
CCCCCCC(=O)CC[C@H]1[C@H](O)CC(=O)[C@@H]1CCCCCCC(=O)O [compound 59] | 4 µM | 1 µM | 
CCCCCC(=O)CC[C@H]1[C@H](O)CC(=O)[C@@H]1C/C=C\CC(C)CC(=O)OC (stereo partly shown) [compound 25] |  |  | IC20 (tracheal smooth muscle): 40 µM
CCCCCCCC(=O)CC[C@H]1[C@H](O)CC(=O)[C@@H]1C/C=C\CCCC(=O)OC [compound 50] |  | 20 µM | 
CCCCC(C)C(=O)CC[C@H]1[C@H](O)CC(=O)[C@@H]1C/C=C\CCCC(=O)OC (stereo partly shown) [compound 27] |  |  | IC20 (tracheal smooth muscle): 0.08 µM; IC50 (tracheal smooth muscle): 0.4 µM
CCOC(=O)CCCCC(=O)C[C@H]1C(=O)C[C@@H](O)[C@@H]1CCC(=O)CCC(C)CC (stereo partly shown) [compound 63] |  | 10 µM | 
CCCCC(C)(C)C(=O)CCC1C(O)CC(=O)C1CC=CCCCC(=O)OCC (stereo not shown) [compound 31] |  |  | IC20 (tracheal smooth muscle): 0.4 µM; IC50 (tracheal smooth muscle): 2 µM
CC(C)=CCCCCC(=O)CC[C@H]1[C@H](O)CC(=O)[C@@H]1C/C=C\CCCC(=O)O [compound 48] |  | 10 µM | 
CCCCCCCC(=O)CC[C@H]1[C@H](C)CC(=O)[C@@H]1C/C=C\CCCC(=O)OC [compound 52] |  | 1 µM | 
CCCCC(C)(C)C(=O)CC[C@H]1[C@H](O)CC(=O)[C@@H]1CC(=O)CCCCC(=O)OCC [compound 11] |  |  | IC20 (tracheal smooth muscle): 0.8 µM; IC50 (tracheal smooth muscle): 4 µM
COCCCCCC(=O)CC[C@H]1[C@H](O)CC(=O)[C@@H]1C/C=C\CCCC(=O)OC [compound 42] |  | 10 µM | 
CCOC(=O)CCC/C=C\C[C@H]1C(=O)C[C@@H](O)[C@@H]1CCC(=O)CCCC(C)C [compound 41] |  | 4 µM | 
CCOC(=O)CCCCC(=O)CC1C(=O)CC(O)C1CCC(=O)CCCC(C)C (stereo not shown) [compound 14] |  |  | IC20 (tracheal smooth muscle): 0.9 µM; IC50 (tracheal smooth muscle): 30 µM

Now from value to compound, other results behind:

IC50 (tracheal smooth muscle; Cavia porcellus) | Compound | IC20 (tracheal smooth muscle; Cavia porcellus) | further results
10 µM | COCCCCC(C)(C)C(=O)CC[C@H]1[C@H](O)CC(=O)[C@@H]1C/C=C\CCCC(=O)OC [compound 45] | 2 µM | 
1 µM | CCCCC(C)C(=O)CC[C@H]1[C@H](O)CC(=O)[C@@H]1CCCCCCC(=O)OC (stereo partly shown) [compound 64] | 0.3 µM | 
7 µM | CCCCCC(=O)CC[C@H]1[C@H](C)CC(=O)[C@@H]1C/C=C\CCCC(=O)OCC [compound 38] | 0.6 µM | 
8 µM | CCCCC(F)C(=O)CC[C@H]1[C@H](CC)CC(=O)[C@@H]1C/C=C\CCCC(=O)OCC (stereo partly shown) [compound 37] | 0.4 µM | 
0.1 µM | CCCCC[C@H](O)/C=C/[C@H]1[C@H](O)CC(=O)[C@@H]1C/C=C\CCCC(=O)O [compound 57] | 0.01 µM | 
10 µM | CCCCC(F)C(=O)/C=C/[C@H]1[C@H](O)CC(=O)[C@@H]1C/C=C\CCCC(=O)OC (stereo partly shown) [compound 55] | 2 µM | 
7 µM | CCCCC(F)C(=O)/C=C/[C@H]1[C@H](O)CC(=O)[C@@H]1C/C=C\CCCC(=O)O (stereo partly shown) [compound 60] | 3 µM | 
10 µM | CCCCCCCC(=O)CC[C@H]1[C@H](O)CC(=O)[C@@H]1C/C=C\CCCC(=O)OCC [compound 51] | 1 µM | 
5 µM | CCCCCC(F)C(=O)CC[C@H]1[C@H](O)CC(=O)[C@@H]1C/C=C\CCCC(=O)OC (stereo partly shown) [compound 36] | 0.5 µM | 
3 µM | COCCCC(=O)CC[C@H]1[C@H](O)CC(=O)[C@@H]1C/C=C\CCCC(=O)OC [compound 47] | 0.6 µM | 
